The first test has as its target T1, Full length (FL) 3-Phosphoglycerate Dehydrogenase (PHGDH) (Homo sapiens, UniProt O43175).
T1 construct: Full length (FL) 3-Phosphoglycerate Dehydrogenase (PHGDH) Diaphorase coupled assay (500 uM NAD)
T1 sequence (O43175 1-533): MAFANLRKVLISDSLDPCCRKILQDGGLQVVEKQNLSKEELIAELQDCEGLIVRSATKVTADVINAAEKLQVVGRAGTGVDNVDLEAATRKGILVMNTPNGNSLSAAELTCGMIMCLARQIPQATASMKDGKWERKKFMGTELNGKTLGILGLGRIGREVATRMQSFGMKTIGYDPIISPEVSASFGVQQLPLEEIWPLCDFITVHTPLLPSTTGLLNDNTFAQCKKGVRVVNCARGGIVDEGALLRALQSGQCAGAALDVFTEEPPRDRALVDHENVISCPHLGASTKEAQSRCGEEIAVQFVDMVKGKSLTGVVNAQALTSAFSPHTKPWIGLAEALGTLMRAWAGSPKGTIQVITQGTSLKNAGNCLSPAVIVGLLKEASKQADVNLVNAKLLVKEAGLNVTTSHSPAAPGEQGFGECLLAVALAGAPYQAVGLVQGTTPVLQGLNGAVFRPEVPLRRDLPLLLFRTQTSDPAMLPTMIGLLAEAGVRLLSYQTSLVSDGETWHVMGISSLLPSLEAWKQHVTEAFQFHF
The test is described as follows: Full length (FL) PHGDH Diaphorase coupled assay (500 uM NAD). As to conditions: 5 nM PHGDH, 30° C., 60 minutes. Format: biochemical. Here is the method: Full length (FL) 3-Phosphoglycerate Dehydrogenase (PHGDH) Diaphorase coupled assay (500 uM NAD)
PHGDH activity was determined by detecting the NADH produced during the reaction. Diaphorase was used to catalyze the oxidation of NADH with the concomitant reduction of resazurin to the fluorescent product resorufin. Resorufin fluorescence quantitatively reflected the production of NADH by the PHGDH reaction. To drive the forward reaction, two enzymes in the serine synthesis pathway subsequent to PHGDH, Phosphoserine aminotransferase (PSAT1) and phosphoserine phosphatase (PSPH) were also added to the reaction.
In the case of `CCC(C(=O)O)c1ccc([C@@H](CO)NC(=O)c2cc3c(Cl)c(Cl)ccc3n2C)cc1` (mixture of isomers) [Compound I-15, (±)-2-[4-[(1S)-1-[(4,5-dichloro-1-methyl-indole-2-carbonyl)amino]-2-hydroxy-ethyl]phenyl]butanoic Acid], the IC50 was in the range of 10 to 1000 nM.

`COc1ccc2c(cc(C(=O)N[C@H](CO)c3ccc(CC(=O)O)cc3)n2C)c1Cl` [Compound I-23, 2-{4-[(1S)-1-[(4-chloro-5-methoxy-1-methyl-1H-indol-2-yl)formamido]-2-hydroxyethyl]phenyl}acetic acid]: the IC50 was in the range of 10 to 1000 nM.

Consider `Cn1c(C(=O)NC(c2ccc(C(=O)O)cc2)C(F)(F)F)cc2c(Cl)c(Cl)ccc21` (racemic) [Compound I-38, (±)-4-(1-(4,5-Dichloro-1-methyl-1H-indole-2-carboxamido)-2,2,2-trifluoroethyl)benzoic Acid], for which the IC50 was in the range of 1000 to 5000 nM.

In turn, `CC(NC(=O)c1cc2c(Cl)c(Cl)ccc2n1C)c1ccc(C(=O)O)cc1Cl` (centres unmarked) [Compound I-33] had an IC50 of 10 to 1000 nM.

In turn, `COc1cc2c(cc(C(=O)N[C@H](CO)c3ccc(C(=O)O)cc3Cl)n2C)c(Cl)c1Cl` [Compound I-17, 3-chloro-4-[(1S)-1-[(4,5-dichloro-6-methoxy-1-methyl-1H-indol-2-yl)formamido]-2-hydroxyethyl]benzoic acid] gave an IC50 of 10 to 1000 nM.

Consider `Cc1cc(CC(=O)O)ccc1[C@@H](CO)NC(=O)c1cc2c(Cl)c(Cl)ccc2n1C` [Compound I-19], for which the IC50 lay in the range of 10 to 1000 nM.

In turn, `Cn1c(C(=O)NCc2ccc(C(=O)O)cc2)cc2c(Cl)c(Cl)ccc21` [Compound I-37] showed an IC50 of 1000 to 5000 nM.

The compound `Cn1c(C(=O)N[C@H](CO)c2ccc(CC(=O)O)cc2F)cc2c(Cl)c(Cl)ccc21` [Compound I-32, 2-{4-[(1S)-1-[(4,5-dichloro-1-methyl-1H-indol-2-yl)formamido]-2-hydroxyethyl]-3-fluorophenyl}acetic acid] returned an IC50 of 10 to 1000 nM.

`Cn1c(C(=O)N[C@H](CO)c2ccc(CC(=O)O)cc2)cc2c(Cl)c(Cl)ccc21` [Compound I-29, 2-{4-[(1S)-1-[(4,5-dichloro-1-methyl-1H-indol-2-yl)formamido]-2-hydroxyethyl]phenyl}acetic acid] had an IC50 of 10 to 1000 nM.

As to `Cn1c(C(=O)NC(CC2CC2)c2ccc(C(=O)O)cc2)cc2c(Cl)c(Cl)ccc21` (centres unmarked) [Compound I-36], the IC50 fell in the range of 1000 to 5000 nM.

In the case of `COc1cc2c(cc(C(=O)N[C@H](CO)c3ccc(CC(=O)O)cc3F)n2C)c(Cl)c1C` [Compound I-26], the IC50 is 10 to 1000 nM.

Turning to `Cn1c(C(=O)NC(CF)c2ccc(C(=O)O)cc2)cc2c(Cl)c(Cl)ccc21` (centres unmarked) [Compound I-6], the IC50 is 10 to 1000 nM.

The compound `CC(NC(=O)c1cc2c(Cl)c(Cl)ccc2n1C)c1ccc(CC(=O)O)cc1F` (centres unmarked) [Compound I-31] had an IC50 of 10 to 1000 nM.

In turn, `CC(NC(=O)c1cc2c(Cl)c(Cl)ccc2n1C)c1ccc(C(=O)O)cc1F` (centres unmarked) [Compound I-30] gave an IC50 of 10 to 1000 nM.

The compound `COc1ccc2c(cc(C(=O)N[C@H](CO)c3ccc(C(=O)O)cc3F)n2C)c1Cl` [Compound I-13] showed an IC50 of 10 to 1000 nM.

For the compound `COc1ccc2c(cc(C(=O)N[C@H](CO)c3ccc(C(=O)O)cc3C)n2C)c1Cl` [Compound I-11], the IC50 was 10 to 1000 nM.

On to `COc1ccc2c(cc(C(=O)N[C@H](CO)c3ccc(CC(=O)O)cc3Cl)n2C)c1Cl` [Compound I-9, 2-{3-chloro-4-[(1S)-1-[(4-chloro-5-methoxy-1-methyl-1H-indol-2-yl)formamido]-2-hydroxyethyl]phenyl}acetic acid], for which the IC50 lay within 10 to 1000 nM.

The compound `Cn1c(C(=O)NC(C)(C)c2ccc(C(=O)O)cc2)cc2c(Cl)c(Cl)ccc21` [Compound I-35] gave an IC50 of 1000 to 5000 nM.

`CCC(C(=O)O)c1ccc([C@@H](CO)NC(=O)c2cc3c(Cl)c(OC)ccc3n2C)cc1` (mixture of isomers) [Compound I-5, (±)-2-[4-[(1S)-1-[(4-chloro-5-methoxy-1-methyl-indole-2-carbonyl)amino]-2-hydroxy-ethyl]phenyl]butanoic Acid] gave an IC50 of 10 to 1000 nM.

Consider `Cn1c(C(=O)N[C@H](CO)c2ccc(C(=O)O)cc2)cc2c(Cl)c(Cl)ccc21` [Compound I-43, 4-[(1S)-1-[(4,5-dichloro-1-methyl-1H-indol-2-yl)formamido]-2-hydroxyethyl]benzoic acid], for which the IC50 fell in the range of 10 to 1000 nM.

The compound `CC(C)C(C(=O)O)c1ccc([C@@H](CO)NC(=O)c2cc3c(Cl)c(Cl)ccc3n2C)cc1` (mixture of isomers) [Compound I-56, (±)-2-[4-[(1S)-1-[(4,5-dichloro-1-methyl-indole-2-carbonyl)amino]-2-hydroxy-ethyl]phenyl]-3-methyl-butanoic Acid] gave an IC50 of 10 to 1000 nM.

`CCC(C(=O)O)c1ccc([C@@H](CO)NC(=O)c2cc3c(Cl)c(Cl)c(OC)cc3n2C)cc1` (mixture of isomers) [Compound I-4, (±)-2-[4-[(1S)-1-[(4,5-dichloro-6-methoxy-1-methyl-indole-2-carbonyl)amino]-2-hydroxy-ethyl]phenyl]butanoic Acid] came in with an IC50 of 10 to 1000 nM.

Consider `Cn1c(C(=O)N[C@H](CO)c2ccc(C(C)(C)C(=O)O)cc2)cc2c(Cl)c(Cl)ccc21` [Compound I-1], for which the IC50 was in the range of 10 to 1000 nM.

The compound `Cn1c(C(=O)N[C@H](CO)c2ccc(C(=O)O)cc2)cc2c(Cl)c(Cl)c(OCC(=O)NCCO)cc21` [Compound I-40, 4-[(1S)-1-[[4,5-Dichloro-6-[2-(2-hydroxyethylamino)-2-oxo-ethoxy]-1-methyl-indole-2-carbonyl]amino]-2-hydroxy-ethyl]benzoic Acid] returned an IC50 of 10 to 1000 nM.

On to `COc1cc2c(cc(C(=O)N[C@H](CO)c3ccc(C(=O)O)cc3F)n2C)c(Cl)c1C` [Compound I-12], for which the IC50 lay in the range of 10 to 1000 nM.

As to `COc1cc2c(cc(C(=O)N[C@H](CO)c3ccc(C(=O)O)cc3Cl)n2C)c(Cl)c1C` [Compound I-16, 3-chloro-4-[(1S)-1-[(4-chloro-6-methoxy-1,5-dimethyl-1H-indol-2-yl)formamido]-2-hydroxyethyl]benzoic acid], the IC50 was 10 to 1000 nM.

The compound `COc1cc2c(cc(C(=O)N[C@H](CO)c3ccc(CC(=O)O)cc3F)n2C)c(Cl)c1F` [Compound I-24] showed an IC50 of 10 to 1000 nM.

`COc1cc2c(cc(C(=O)N[C@H](CO)c3ccc(C(=O)O)cc3C)n2C)c(Cl)c1C` [Compound I-8] displayed an IC50 of 10 to 1000 nM.

The compound `COc1cc2c(cc(C(=O)N[C@H](CO)c3ccc(C(=O)O)cc3C)n2C)c(Cl)c1Cl` [Compound I-7] gave an IC50 of 10 to 1000 nM.

The compound `CC(C)C(C(=O)O)c1ccc([C@@H](CO)NC(=O)c2cc3c(Cl)c(Cl)ccc3n2C)cc1` (single isomer, unassigned) [Compound I-54, (2R or 2S)-2-[4-[(1S)-1-[(4,5-dichloro-1-methyl-indole-2-carbonyl)amino]-2-hydroxy-ethyl]phenyl]-3-methyl-butanoic acid] came in with an IC50 of 10 to 1000 nM.

Compound `Cc1cc(C(=O)O)ccc1[C@@H](CO)NC(=O)c1cc2c(Cl)c(Cl)ccc2n1C` [Compound I-18] displayed an IC50 of 10 to 1000 nM.

The test is the same for the next values; noted with them: read-out: FL Diaphorase 500 μM NAD (PHGDH activity inhibition, IC50), 5 nM PHGDH, 30° C., 60 minutes.
`CC(C)C(C(=O)O)c1ccc([C@@H](CO)NC(=O)c2cc3c(Cl)c(Cl)ccc3n2C)cc1` (single isomer, unassigned) [Compound I-55, (2S or 2R)-2-[4-[(1S)-1-[(4,5-dichloro-1-methyl-indole-2-carbonyl)amino]-2-hydroxy-ethyl]phenyl]-3-methyl-butanoic acid]: the IC50 was 10 to 1000 nM.

Usually IC50 stands for the concentration that inhibits the measured activity by half.

The record behind these values is patent publication US11535593B2, “3-phosphoglycerate dehydrogenase inhibitors and uses thereof” (Raze Therapeutics, Inc., priority 2016, dated 2022).
